Key:
human Parkin promoter = assay: Parkin promoter luciferase screening in HEK-Parkin-Luc cell line; format: cell-based; conditions: relative to DMSO, 10 μM, about 24 hours
Protocol: To identify compounds capable of inducing expression of Parkin protein at the promoter level, a pGL3-Parkin-Luc DNA construct was used (Cell Death and Differentiation, vol. 18, No. 5, p. 769-782, 2011.05 ). This construct was used to quantify the activity of human Parkin promoter by luminescence intensity due to a luciferase expression level. As a cell line, a human embryonic kidney cell line HEK-293T (ATCC), which maintains Parkin protein activity at a low level, was prepared.
Thereafter, 5 μg/ml of puromycin (Calbiochem) was added to the HEK-293T cells, and cultured at 37° C. and 5 % CO2 for about 21 days. Every 3 days, the medium was replaced by a fresh medium containing 5 μg/ml of puromycin. Stable cell lines were established from single colonies of the cultured cell line. A cell line showing stable luciferase activity was obtained, and designated as HEK-Parkin-Luc, which was used to screen for compounds capable of activating the Parkin promoter. […]
Then, the cultured cells were washed with PBS, and a luminescent substrate (Promega) was added. Luminescence intensity of the cells was measured using a microplate luminometer (Berthold Technologies), and luciferase activity relative to a negative control of 0.1% DMSO was calculated.

Parkin protein = assay: Immunoblotting of Parkin protein in HEK 293T cells; format: cell-based, human; conditions: Parkin protein relative to DMSO, 10 μM, about 48 hours
Protocol: Among the 44 compounds selected in the initial screen described in 2, 22 compounds were examined to determine whether they increased expression of Parkin protein when they are applied to an HEK 293T cell line.
10 μM of each compound was added to the HEK 293T cells, and cultured at 37° C. and 5% CO2 for about 48 hours. The cultured cells were collected, and proteins were obtained from the cells. Anti-Parkin protein antibody (Cell signaling) and anti-beta actin antibody (Sigma-Aldrich) were used to perform immunoblotting, and an image of the immunoblotting is shown in FIG. 1.

HEK 293T cell line = assay: Cell protecting effect against H2O2 oxidative stress cytotoxicity (Alamar blue assay); format: cell-based, human; conditions: cytotoxicity inhibition ratio relative to DMSO; 10 μM 48 hours, then H2O2 500 μM 90 minutes
Protocol: A cytotoxicity-induced model by application of oxidative stress to the HEK 293T cell line was used. 10 μM of each of the 22 compounds was applied to the HEK cell line and cultured at 37° C. and 5% CO2 for about 48 hours. H2O2 (Sigma-Aldrich, final concentration of 500 μM) was applied to the cultured cells and cultured at 37° C. and 5% CO2 for about 90 minutes. Thereafter, cells were collected and cytotoxicity was examined by Alamar blue® assay (Thermo Fisher Scientific).
The level of H2O2-induced cytotoxicity in cells treated with each of the 22 compounds was compared with cells treated with DMSO alone. 16 compounds having a significant cytotoxicity inhibitory effect (P<0.05) against oxidative stress were selected.
In Table 1, the values of luciferase activity and immunoblotting were expressed relative to DMSO, and the cell protecting effect (%) represents a cytotoxicity inhibition ratio, relative to DMSO. […] Further, “n” represents the number of experiments that were repeated, and “s.e.” represents standard error.

parkin = assay: Parkin expression in mouse brain subregions after i.p. hydrocortisone (immunoblot); format: in vivo; conditions: striatum, ventral midbrain and cerebellum; i.p. 7 days; vs vehicle treated control mice; normalized to β-actin
Protocol: The head skin was closed by suturing and wound healing and recovery were monitored following surgery. […] The brain was removed and processed for immunohistochemistry. […] After homogenization, samples were rotated at 4° C. for 30 min for complete lysis, then the homogenate was centrifuged at 52,000 rpm for 20 min, and the resulting fractions were collected. Protein levels were quantified using the BCA kit (Pierce) with BSA standards and analyzed by immunoblot. […] The densitometric analyses of the bands were performed using ImageJ (NIH, http://rsb.info.nih.gov/ij/).

AIMP2 = AIMP2 level in mouse striatum and ventral midbrain after i.p. hydrocortisone (western blot); format: in vivo; conditions: hydrocortisone 7 days vs DMSO
Protocol: The head skin was closed by suturing and wound healing and recovery were monitored following surgery. […] The brain was removed and processed for immunohistochemistry. […] After homogenization, samples were rotated at 4° C. for 30 min for complete lysis, then the homogenate was centrifuged at 52,000 rpm for 20 min, and the resulting fractions were collected. Protein levels were quantified using the BCA kit (Pierce) with BSA standards and analyzed by immunoblot.
The densitometric analyses of the bands were performed using ImageJ (NIH, http://rsb.info.nih.gov/ij/).

[1] = tested on: tyrosine hydroxylase (TH)-positive dopaminergic neurons in the substantia nigra pars compacta; assay: 6-OHDA-induced PD mouse model, stereological count of TH-positive dopaminergic neurons; format: in vivo; conditions: hydrocortisone pretreatment 0.4 mg/kg i.p. daily; 6-OHDA 8 ug intrastriatal on day 7
Protocol: Hydrocortisone was given to mice intraperitoneally. Hydrocortisone administration began on day 1 and continued for 11 days followed by stereological assessment of dopamine neuron counts. 6-OHDA intrastriatal injection was done on day 7. For stereotaxic injection of 6-hydroxy dopamine (6-OHDA, 8 ug), eight-week-old C57/BL6 mice treated either with hydrocortisone for 7 days or DMSO as a control were anesthetized with pentobarbital (60 mg/kg). An injection cannula (26.5 gauge) was applied stereotaxically into the striatum (anteroposterior, 0.5 mm from bregma; mediolateral, 2.0 mm; dorsoventral, 3.0 mm) unilaterally (applied into the right hemisphere). […] The head skin was closed by suturing and wound healing and recovery were monitored following surgery. […] Protein levels were quantified using the BCA kit (Pierce) with BSA standards and analyzed by immunoblot. […]
After scheduled treatments of hydrocortisone (0.4 mg/kg body weight, i.p. administration daily) in 6-OHDA intoxication models and control groups, animals were anesthetized with pentobarbital (50 mg/kg, intraperitoneal injection) and perfused with PBS followed by 4% paraformaldehyde (wt/vol in PBS). […] Total numbers of TH-positive neurons in substantia nigra pars compacta were counted using the Optical Fractionator probe of Stereo Investigator software (MicroBrightfield, Williston, Vt.). […]

O=C(c1ccccc1)c1ccc2n1CCC2C(=O)O (racemic) [Ketorolac tromethamine, (±)-5-benzoyl-2,3-dihydro-1H-pyrrolizine-1-carboxylic acid]
Luciferase activity (human Parkin promoter): 1.31 | Immunoblotting (Parkin protein): 1.95 | Cell protecting effect (%) (HEK 293T cell line): 21.49%

C[C@]12CCC(=O)C=C1CC[C@@H]1[C@@H]2[C@@H](O)C[C@@]2(C)[C@H]1CC[C@]2(O)C(=O)CO [Hydrocortisone, (11β)-11,17,21-trihydroxypregn-4-ene-3,20-dione]
Luciferase activity (human Parkin promoter): 1.52 | Immunoblotting (Parkin protein): 1.11 | Cell protecting effect (%) (HEK 293T cell line): 35.53% | increase of parkin expression (parkin): approximately two fold | downregulation of parkin's toxic substrate AIMP2 (AIMP2): 20% | dopaminergic neuronal survival against 6-OHDA intoxication [1]: markedly enhanced dopaminergic neuronal survival

— patent US20170157145A1, “SUBSTANCE INDUCING EXPRESSION OF PARKIN POLYPEPTIDE AND USE THEREOF” (Samsung Electronics Co., Ltd., priority 2015, published 2017)
